Assay results as given in ChEMBL document CHEMBL1201862, “PubChem BioAssay data set” (2004).
Calls of active or inactive are those of the source.

How the values were obtained:
Fatty acid synthase [1] = molecular target: T1, Fatty acid synthase (Homo sapiens, UniProt P49327); assay: inhibition of human FAS-TE enzyme activity – biochemical, kinetic fluorescence intensity, dose response (AID 624326); assay type: functional;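 further: rate of fluorescence rise from hydrolysis of a fluorogenic O-methyl fluorescein ester substrate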
T1 sequence (P49327 whole entry): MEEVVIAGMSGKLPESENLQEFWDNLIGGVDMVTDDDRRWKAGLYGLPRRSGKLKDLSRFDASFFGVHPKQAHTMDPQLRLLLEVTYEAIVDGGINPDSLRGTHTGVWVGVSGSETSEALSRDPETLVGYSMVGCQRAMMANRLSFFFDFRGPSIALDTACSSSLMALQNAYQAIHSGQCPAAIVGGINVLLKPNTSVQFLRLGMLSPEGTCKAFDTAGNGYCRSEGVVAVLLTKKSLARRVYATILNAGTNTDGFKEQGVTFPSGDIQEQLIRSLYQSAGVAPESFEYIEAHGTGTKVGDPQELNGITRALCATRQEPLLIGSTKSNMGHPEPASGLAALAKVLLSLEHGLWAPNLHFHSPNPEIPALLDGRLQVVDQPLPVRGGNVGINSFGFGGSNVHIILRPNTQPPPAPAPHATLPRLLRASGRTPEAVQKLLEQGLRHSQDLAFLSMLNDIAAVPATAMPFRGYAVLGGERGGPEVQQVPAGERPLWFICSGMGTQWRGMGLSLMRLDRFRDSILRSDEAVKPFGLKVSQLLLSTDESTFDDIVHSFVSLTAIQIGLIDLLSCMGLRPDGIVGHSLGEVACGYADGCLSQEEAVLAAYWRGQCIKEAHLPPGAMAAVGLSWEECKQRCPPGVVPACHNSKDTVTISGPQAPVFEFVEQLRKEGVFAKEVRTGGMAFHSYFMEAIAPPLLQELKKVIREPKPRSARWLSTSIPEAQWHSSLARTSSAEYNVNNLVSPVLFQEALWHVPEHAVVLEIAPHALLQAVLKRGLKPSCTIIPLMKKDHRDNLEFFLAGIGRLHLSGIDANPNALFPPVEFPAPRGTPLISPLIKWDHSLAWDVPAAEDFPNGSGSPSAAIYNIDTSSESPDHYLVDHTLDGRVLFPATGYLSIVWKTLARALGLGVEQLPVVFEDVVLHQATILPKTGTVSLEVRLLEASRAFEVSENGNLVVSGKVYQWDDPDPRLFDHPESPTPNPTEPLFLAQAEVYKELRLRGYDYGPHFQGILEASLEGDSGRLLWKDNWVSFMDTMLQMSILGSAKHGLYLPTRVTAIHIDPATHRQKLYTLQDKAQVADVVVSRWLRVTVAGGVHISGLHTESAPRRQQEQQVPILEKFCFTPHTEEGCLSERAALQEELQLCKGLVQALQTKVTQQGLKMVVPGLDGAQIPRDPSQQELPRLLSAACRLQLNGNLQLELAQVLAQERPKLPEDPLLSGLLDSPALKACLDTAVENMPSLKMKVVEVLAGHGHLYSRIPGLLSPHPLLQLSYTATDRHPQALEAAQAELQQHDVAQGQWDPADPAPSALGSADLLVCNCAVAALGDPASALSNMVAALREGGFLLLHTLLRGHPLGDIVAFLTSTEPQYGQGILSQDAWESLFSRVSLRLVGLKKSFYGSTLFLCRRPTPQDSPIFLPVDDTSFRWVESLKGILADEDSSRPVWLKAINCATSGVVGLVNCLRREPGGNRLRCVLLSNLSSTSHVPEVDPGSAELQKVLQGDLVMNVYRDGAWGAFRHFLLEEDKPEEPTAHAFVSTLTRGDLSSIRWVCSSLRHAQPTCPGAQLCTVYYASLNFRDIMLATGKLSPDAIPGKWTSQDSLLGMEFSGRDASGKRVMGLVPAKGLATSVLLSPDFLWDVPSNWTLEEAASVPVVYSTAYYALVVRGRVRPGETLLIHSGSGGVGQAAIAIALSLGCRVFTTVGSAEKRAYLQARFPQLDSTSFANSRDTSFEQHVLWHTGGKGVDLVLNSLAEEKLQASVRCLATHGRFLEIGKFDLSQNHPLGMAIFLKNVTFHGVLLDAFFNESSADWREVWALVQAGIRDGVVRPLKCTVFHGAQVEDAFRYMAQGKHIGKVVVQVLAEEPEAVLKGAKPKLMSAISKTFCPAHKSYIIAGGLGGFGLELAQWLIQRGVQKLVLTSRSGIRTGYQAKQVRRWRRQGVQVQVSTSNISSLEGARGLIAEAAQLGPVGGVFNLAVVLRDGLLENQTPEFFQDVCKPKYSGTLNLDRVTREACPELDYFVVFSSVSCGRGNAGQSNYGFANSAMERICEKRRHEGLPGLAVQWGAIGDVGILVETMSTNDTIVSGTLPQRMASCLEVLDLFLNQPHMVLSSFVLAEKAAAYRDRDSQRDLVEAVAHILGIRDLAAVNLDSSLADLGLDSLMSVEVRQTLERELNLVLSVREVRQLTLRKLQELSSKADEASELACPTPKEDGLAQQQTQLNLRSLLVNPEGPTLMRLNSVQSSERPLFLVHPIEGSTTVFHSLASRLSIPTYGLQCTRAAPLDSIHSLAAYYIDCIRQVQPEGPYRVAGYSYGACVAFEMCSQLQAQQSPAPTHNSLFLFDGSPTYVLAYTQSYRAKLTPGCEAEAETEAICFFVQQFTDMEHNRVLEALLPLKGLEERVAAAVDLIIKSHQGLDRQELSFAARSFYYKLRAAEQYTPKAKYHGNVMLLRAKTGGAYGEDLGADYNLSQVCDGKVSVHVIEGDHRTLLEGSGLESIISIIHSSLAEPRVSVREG

[2] = molecular target: T2, Neuropeptides B/W receptor type 1 (Homo sapiens, UniProt P48145); assay: Fluorescence-based dose response cell-based high throughput screening assay to identify antagonists of the G-protein coupled receptor 7 (GPR7). [Related pubchem assays: 1952 (Screening assay (GPR7 antagonists).), 1880 (Summary AID.)]; assay type: functional
T2 sequence (P48145 whole entry): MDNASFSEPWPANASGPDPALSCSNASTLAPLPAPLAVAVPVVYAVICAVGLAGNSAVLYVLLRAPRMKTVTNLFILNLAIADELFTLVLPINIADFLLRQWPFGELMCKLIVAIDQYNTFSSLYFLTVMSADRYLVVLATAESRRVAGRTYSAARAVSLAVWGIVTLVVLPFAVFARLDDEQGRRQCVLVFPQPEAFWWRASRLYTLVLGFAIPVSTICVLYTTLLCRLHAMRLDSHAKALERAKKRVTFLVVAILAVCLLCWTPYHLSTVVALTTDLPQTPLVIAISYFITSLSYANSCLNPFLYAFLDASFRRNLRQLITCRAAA

[3] = molecular target: Melanin-concentrating hormone receptor 1 (Homo sapiens, UniProt Q99705); assay: Fluorescence-based counterscreen for antagonists of the G-protein coupled receptor 7 (GPR7): cell-based high throughput dose response assay to identify antagonists of the melanin-concentrating hormone receptor 1 (MCHR1).; assay type: functional
Sequence of Melanin-concentrating hormone receptor 1 (Q99705 whole entry): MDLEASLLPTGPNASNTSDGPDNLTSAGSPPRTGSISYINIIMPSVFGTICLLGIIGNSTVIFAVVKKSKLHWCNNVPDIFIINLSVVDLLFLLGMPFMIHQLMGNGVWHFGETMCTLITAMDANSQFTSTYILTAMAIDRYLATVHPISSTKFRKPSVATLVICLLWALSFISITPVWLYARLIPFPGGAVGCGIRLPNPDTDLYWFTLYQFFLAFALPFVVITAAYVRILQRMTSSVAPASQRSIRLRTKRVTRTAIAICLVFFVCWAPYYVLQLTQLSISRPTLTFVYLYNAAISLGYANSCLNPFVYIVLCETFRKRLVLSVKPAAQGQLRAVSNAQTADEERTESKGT

Fatty acid synthase [4] = molecular target: T1, Fatty acid synthase; assay: inhibition of human FAS-TE enzyme activity – biochemical, endpoint fluorescence intensity, uHTS hits, dose response (AID 624327); assay type: functional;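 further: fluorescence from hydrolysis of an O-methyl fluorescein acyl ester substrate by the enzyme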
Vero = assay: host cell viability loss, Vero E6 – synthesized analogs, cytotoxicity control for West Nile virus antiviral project, SAR follow-up (AID 2244); assay type: functional; conditions: Chlorocebus sabaeus
X-box-binding protein 1 = X-box-binding protein 1 (Homo sapiens, UniProt P17861); assay type: functional, Cricetulus griseus;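 further: confirmatory dose-response counter-screen serving a CHOP assay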
Sequence of X-box-binding protein 1 (P17861 whole entry): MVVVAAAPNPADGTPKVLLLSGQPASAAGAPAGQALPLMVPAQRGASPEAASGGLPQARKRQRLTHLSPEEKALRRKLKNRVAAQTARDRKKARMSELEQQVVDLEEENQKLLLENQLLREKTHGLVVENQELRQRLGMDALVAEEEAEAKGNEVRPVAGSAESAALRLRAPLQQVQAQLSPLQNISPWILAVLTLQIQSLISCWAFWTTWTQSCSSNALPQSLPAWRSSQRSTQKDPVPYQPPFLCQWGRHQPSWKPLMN

[5] = molecular target: T3, Heat shock factor protein 1 (Mus musculus, UniProt P38532); assay: enhancement of HSF1-driven luciferase signal – cell-based, NIH3T3, luminescence, dose retest, confirmation (AID 435004); assay type: functional;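 further: stress induced by proteasome inhibitor MG132 added 30 min after compound; luciferase reporter driven by HSF1 response element in NIH3T3 cells; actives raise luminescence as potentiators of the MG132 stress response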
T3 sequence (P38532 whole entry): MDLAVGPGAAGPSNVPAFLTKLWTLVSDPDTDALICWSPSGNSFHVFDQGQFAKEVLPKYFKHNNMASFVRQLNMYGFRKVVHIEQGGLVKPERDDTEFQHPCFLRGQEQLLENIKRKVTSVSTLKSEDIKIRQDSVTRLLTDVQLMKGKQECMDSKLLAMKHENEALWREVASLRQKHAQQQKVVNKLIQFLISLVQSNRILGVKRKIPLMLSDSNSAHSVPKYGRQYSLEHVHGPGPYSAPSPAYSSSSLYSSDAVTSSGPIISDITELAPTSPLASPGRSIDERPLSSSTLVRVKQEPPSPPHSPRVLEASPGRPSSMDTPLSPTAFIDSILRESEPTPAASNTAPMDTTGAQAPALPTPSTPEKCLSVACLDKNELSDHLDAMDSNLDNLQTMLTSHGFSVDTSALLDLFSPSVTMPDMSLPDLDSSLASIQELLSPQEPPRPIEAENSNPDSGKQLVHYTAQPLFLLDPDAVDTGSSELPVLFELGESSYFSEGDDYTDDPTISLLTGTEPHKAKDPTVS

[6] = molecular target: Dual specificity tyrosine-phosphorylation-regulated kinase 1A (Rattus norvegicus, UniProt Q63470); assay type: biochemical, Homo sapiens
ORF 73 = ORF 73 (Human herpesvirus 8, UniProt O40947); assay: KSHV LANA DNA-binding disruption – biochemical, fluorescence polarization, cherry-picked samples, dose response (AID 504725); set-up: species or system Human gammaherpesvirus 8;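 further: fluorescence polarization of a labeled DNA duplex reporting LANA DNA binding; potency is for inhibitors that block LANA binding to the DNA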
HEK293 [7] = assay: optical interference in Abeta FP readout, dose response, artefact control for IDE activator project, biochemical, fluorescence polarization (AID 588442); assay type: functional, cell-based; conditions: Homo sapiens
Beta-lactamase [8] = molecular target: Beta-lactamase (Salmonella choleraesuis (strain SC-B67), UniProt Q5J463)
Insulin-degrading enzyme [9] = molecular target: T4, Insulin-degrading enzyme (Homo sapiens, UniProt P14735); assay: cellular IDE activation of Abeta substrate cleavage – fluorescence polarization, HEK cells, dose response (AID 588439); assay type: functional, cell-based
T4 sequence (P14735 whole entry): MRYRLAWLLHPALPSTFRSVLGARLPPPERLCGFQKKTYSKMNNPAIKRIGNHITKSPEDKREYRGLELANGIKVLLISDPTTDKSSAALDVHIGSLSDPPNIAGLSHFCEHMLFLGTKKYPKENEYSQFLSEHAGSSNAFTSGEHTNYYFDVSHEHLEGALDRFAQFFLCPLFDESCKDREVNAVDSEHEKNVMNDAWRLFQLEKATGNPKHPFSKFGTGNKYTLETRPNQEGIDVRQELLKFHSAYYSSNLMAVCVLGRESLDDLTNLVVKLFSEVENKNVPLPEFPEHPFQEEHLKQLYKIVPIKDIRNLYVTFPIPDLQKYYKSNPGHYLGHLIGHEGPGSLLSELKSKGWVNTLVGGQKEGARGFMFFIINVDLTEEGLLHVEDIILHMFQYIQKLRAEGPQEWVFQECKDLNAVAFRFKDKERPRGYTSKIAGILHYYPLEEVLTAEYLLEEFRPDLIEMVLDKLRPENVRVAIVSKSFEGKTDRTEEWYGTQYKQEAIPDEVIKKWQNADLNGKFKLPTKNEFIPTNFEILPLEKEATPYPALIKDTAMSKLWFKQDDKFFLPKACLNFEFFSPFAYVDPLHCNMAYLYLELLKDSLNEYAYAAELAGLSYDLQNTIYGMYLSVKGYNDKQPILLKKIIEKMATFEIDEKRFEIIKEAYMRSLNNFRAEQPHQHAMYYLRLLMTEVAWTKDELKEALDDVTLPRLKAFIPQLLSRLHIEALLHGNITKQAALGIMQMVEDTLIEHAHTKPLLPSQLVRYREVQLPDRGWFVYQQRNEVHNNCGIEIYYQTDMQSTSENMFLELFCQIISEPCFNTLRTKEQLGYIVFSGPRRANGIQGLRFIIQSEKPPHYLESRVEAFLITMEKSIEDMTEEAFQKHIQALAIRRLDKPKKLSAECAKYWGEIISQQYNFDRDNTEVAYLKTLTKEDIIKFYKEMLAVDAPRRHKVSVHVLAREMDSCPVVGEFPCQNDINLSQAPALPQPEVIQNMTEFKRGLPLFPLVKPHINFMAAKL

HEK293 [10] = assay: membrane integrity loss in HEK cells – cell-based, fluorescence, cytotoxicity control for IDE activator project, dose response (AID 588440); assay type: functional; conditions: Homo sapiens;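 further: cytotoxicity by LDH release measuring loss of membrane integrity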
Beta-lactamase [11] = molecular target: Beta-lactamase (Pseudomonas aeruginosa, UniProt Q79MP6);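 further: biochemical dose-response test of metallo-beta-lactamase enzyme inhibition, read out by epi-absorbance; purified recombinant IMP-1 metallo-beta-lactamase with nitrocefin as substrate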
Sequence of Beta-lactamase (Pseudomonas aeruginosa, UniProt Q79MP6) (Q79MP6 whole entry): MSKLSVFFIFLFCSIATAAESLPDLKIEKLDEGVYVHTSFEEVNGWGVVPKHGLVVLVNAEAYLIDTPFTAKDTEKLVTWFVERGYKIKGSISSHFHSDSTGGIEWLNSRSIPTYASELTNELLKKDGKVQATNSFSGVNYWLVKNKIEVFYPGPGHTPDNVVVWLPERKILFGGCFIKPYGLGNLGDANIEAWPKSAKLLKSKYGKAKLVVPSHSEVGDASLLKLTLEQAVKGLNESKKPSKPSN

HeLa = assay: viability loss in HeLa cells – cell-based, 24 h, cherry-picked samples, cytotoxicity control, dose response (AID 504726); assay type: functional; conditions: Homo sapiens;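 further: potency for cytotoxicity as loss of luminescence signal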
Insulin-degrading enzyme [12] = molecular target: T4, Insulin-degrading enzyme; assay: recombinant IDE activation, cell-free – biochemical, fluorescence polarization, counter-screen for IDE activator project, dose response (AID 588681)
[13] = molecular target: T5, Short transient receptor potential channel 4 (Mus musculus, UniProt Q9QUQ5); assay: block of DAMGO-driven TRPC4 calcium entry – cell-based, HEK293 TRPC4/mu-opioid, Fluo-4 calcium, dose response (AID 434942); assay type: functional;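 further: potency of inhibitors blocking the TRPC4 calcium response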
T5 sequence (Q9QUQ5 whole entry): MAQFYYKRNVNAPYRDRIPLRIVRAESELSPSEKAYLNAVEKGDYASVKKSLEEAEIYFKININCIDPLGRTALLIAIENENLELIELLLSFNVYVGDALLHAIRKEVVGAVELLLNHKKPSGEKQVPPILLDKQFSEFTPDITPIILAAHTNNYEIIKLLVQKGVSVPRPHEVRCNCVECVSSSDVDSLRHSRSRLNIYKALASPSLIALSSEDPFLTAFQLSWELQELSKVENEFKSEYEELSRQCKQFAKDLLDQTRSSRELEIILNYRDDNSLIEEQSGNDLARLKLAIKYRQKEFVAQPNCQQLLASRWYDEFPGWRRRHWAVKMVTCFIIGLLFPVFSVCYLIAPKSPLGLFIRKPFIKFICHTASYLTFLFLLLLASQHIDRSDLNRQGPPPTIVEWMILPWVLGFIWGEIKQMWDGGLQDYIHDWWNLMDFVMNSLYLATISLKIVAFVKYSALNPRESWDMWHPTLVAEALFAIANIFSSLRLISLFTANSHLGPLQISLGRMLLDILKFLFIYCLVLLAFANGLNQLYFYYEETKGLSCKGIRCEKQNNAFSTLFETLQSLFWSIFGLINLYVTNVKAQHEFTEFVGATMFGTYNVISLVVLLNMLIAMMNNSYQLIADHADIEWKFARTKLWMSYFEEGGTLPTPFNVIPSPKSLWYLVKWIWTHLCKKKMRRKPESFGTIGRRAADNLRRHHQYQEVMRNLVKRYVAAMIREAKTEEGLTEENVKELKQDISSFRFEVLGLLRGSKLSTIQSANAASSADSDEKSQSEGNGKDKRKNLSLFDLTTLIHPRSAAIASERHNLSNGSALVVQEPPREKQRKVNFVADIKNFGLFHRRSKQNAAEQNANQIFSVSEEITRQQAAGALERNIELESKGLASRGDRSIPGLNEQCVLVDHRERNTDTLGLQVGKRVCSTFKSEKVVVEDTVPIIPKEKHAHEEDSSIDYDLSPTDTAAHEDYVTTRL

[14] = molecular target: Acyl-homoserine lactone acylase PvdQ (Pseudomonas aeruginosa (strain LESB58), UniProt Q9I194); assay: PvdQ acylase enzyme activity blockers – biochemical, fluorescence, plate reader and imaging, cherry-picks, dose response (AID 493231)
Sequence of Acyl-homoserine lactone acylase PvdQ (Q9I194 24-193 limits assumed): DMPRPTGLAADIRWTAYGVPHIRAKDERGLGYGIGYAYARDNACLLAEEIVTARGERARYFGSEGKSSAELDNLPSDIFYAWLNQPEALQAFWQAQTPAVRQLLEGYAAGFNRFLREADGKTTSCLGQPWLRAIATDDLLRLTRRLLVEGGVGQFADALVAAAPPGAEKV
Sequence of Acyl-homoserine lactone acylase PvdQ (Q9I194 217-762 limits assumed): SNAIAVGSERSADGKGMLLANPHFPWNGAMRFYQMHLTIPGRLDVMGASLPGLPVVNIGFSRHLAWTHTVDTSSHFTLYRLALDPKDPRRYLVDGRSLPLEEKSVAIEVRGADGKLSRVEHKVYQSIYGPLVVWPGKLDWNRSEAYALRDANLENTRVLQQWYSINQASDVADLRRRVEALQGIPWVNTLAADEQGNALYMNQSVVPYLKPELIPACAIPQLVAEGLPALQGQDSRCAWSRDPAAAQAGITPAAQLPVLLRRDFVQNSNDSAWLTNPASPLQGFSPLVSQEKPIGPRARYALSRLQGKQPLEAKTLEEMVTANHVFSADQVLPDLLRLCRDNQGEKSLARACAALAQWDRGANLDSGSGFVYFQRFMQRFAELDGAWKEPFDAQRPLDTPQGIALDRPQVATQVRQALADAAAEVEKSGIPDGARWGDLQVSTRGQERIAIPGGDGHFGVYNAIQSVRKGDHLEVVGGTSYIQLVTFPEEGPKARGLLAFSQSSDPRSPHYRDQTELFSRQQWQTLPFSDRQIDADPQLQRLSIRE

Hexokinase = Hexokinase (Trypanosoma brucei, UniProt Q38C41); assay: Confirmation assay for inhibitors of Trypanosoma brucei hexokinase 1-Analogue-first series. [Related pubchem assays (depositor defined):AID1430, AID1632, AID2516, AID2560, AID2579, AID2600, AID449725, AID492951]; assay type: functional
Sequence of Hexokinase (Q38C41 whole entry): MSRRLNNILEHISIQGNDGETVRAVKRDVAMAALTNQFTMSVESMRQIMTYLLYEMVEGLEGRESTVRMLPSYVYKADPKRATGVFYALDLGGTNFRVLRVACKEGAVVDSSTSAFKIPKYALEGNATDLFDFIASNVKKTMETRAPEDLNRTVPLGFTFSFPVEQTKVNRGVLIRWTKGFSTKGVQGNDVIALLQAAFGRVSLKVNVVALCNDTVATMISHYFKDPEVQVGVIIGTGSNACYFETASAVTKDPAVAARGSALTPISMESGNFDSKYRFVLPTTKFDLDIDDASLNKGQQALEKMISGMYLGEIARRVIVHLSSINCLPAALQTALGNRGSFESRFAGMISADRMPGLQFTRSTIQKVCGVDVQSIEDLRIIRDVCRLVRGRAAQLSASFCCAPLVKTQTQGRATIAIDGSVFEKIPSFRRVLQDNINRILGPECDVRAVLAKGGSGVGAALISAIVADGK

[15] = molecular target: T6, Corticotropin-releasing factor receptor 2/Corticotropin-releasing factor-binding protein (Homo sapiens, UniProt P24387+Q13324); assay: activators of CRF receptor 2 with binding protein – uHTS hits, confirmation (AID 602473); assay type: functional; conditions: read-out: EC50_Mean
T6 sequence (Q13324 whole entry): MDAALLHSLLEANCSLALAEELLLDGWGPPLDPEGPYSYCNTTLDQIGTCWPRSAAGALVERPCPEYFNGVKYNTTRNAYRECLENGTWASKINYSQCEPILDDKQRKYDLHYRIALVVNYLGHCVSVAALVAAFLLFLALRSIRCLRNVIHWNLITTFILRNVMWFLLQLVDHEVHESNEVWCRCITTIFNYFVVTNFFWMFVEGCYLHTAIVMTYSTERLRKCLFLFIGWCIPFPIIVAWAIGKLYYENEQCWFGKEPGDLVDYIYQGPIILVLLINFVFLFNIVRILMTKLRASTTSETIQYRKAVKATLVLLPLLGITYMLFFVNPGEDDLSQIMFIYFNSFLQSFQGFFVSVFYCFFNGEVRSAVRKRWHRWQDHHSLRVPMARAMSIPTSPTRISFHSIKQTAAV
T6 sequence (P24387 whole entry): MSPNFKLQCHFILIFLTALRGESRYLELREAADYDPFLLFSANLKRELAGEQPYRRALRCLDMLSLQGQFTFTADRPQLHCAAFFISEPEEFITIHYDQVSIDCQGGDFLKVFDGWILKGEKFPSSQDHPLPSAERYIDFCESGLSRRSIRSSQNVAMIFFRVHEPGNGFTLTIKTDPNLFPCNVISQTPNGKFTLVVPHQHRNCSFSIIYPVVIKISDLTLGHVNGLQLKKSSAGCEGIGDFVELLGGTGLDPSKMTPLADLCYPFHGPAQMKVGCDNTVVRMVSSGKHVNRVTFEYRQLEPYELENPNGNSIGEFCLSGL

[16] = molecular target: G-protein coupled receptor 35 (Homo sapiens, UniProt Q9HC97); assay: inhibition of zaprinast-stimulated GPR35 beta-arrestin translocation – imaging, U2OS, beta-arrestin-GFP, zaprinast agonist, primary screen (AID 2058); assay type: functional;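 further: antagonist potency meaning inhibition of agonist-induced arrestin redistribution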
Sequence of G-protein coupled receptor 35 (Q9HC97 whole entry): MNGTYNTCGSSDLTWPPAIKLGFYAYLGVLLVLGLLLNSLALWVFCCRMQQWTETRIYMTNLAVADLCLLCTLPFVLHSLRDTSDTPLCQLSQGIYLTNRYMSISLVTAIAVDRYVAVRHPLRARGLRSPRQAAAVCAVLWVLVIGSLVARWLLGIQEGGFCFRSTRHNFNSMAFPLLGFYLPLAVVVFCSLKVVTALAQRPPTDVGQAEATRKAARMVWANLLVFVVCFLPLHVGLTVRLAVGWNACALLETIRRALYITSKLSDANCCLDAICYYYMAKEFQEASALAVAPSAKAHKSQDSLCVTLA

[17] = molecular target: T5, Short transient receptor potential channel 4; assay: calcium entry via TRPC4 opening agents – cell-based, HEK293 TRPC4/mu-opioid, Fluo-4 calcium, dose response (AID 434937); assay type: functional

## O=C(COc1ccc([N+](=O)[O-])cc1)NCCC1=CCCCC1
Fatty acid synthase [1]
  IC50: 10.1 µM (active)
[2]
  IC50: > 14.6 µM (not active)
[3]
  IC50: 22.2 µM (not active)
Fatty acid synthase [4]
  IC50: 8.16 µM (active)

## COc1ccc(-c2csc(N(CCCN(C)C)C(=O)c3ccccc3F)n2)cc1
Vero
  CC50: > 80 µM (active)

## CC(C)C(=O)N1CCC(CNC=C2C(=O)N(C3CCCCC3)C(=O)N(C3CCCCC3)C2=O)CC1
X-box-binding protein 1
  Absolute IC50 (XBP1): 10 µM

## Clc1ccc(-n2c(SC/C=C/c3ccccc3)nnc2-c2cccnc2)cc1
[2]
  IC50: 16.9 µM (not active)
[3]
  IC50: 8.43 µM (active)
[5]
  EC50: 46.1 µM (active)

## COCCCNc1c(O)nc2cccc3c2c1-c1ccccc1C3=O
[6]
  AC50: 1.57 µM (active)
ORF 73
  AC50: 0.526 µM (active)
HEK293 [7]
  EC50: > 54.7 µM (inactive)
Beta-lactamase [8]
  IC50: 0.89 µM (active)
Insulin-degrading enzyme [9]
  EC50: > 54.7 µM (inactive)
HEK293 [10]
  IC50: > 89.2 µM (inactive)
Beta-lactamase [11]
  IC50: 2.11 µM (active)
HeLa
  AC50: 66.1 µM (active)
Insulin-degrading enzyme [12]
  EC50: > 54.7 µM (inactive)

## CCc1cc(C(c2cccc(OC)c2)N2CCOCC2)c(NC(=O)c2ccccc2)s1 (stereo not given)
[13]
  EC50: 1.88 µM (active)

## O=C(NC1CCCCCCC1)c1cc([N+](=O)[O-])ccc1Cl
Fatty acid synthase [1]
  IC50: 7.35 µM (active)
Fatty acid synthase [4]
  IC50: 9.4 µM (active)
[14]
  AC50: 40.8 µM (active)

## N#Cc1ccc(NC(=O)Cn2sc3ccccc3c2=O)cc1
Hexokinase
  IC50: 6.97 µM (active)

## Cc1ccc(OCC(=O)N/N=C/c2c[nH]nc2-c2ccc(Cl)c(Cl)c2)cc1
X-box-binding protein 1
  Absolute IC50 (XBP1): 10 µM

## COC(=O)c1noc(-c2ccc(OC)cc2)n1
[14]
  AC50: > 100 µM (inactive)

## CCCCN1C(=O)NC(=O)/C(=C(O)\C=C\c2c[nH]c3ccccc23)C1=O
[15]
  EC50: 6.02 µM (active)
[16]
  IC50: 3.1 µM (active)

## Cc1onc(-c2ccccc2)c1C(=O)NNC(=S)NC(=O)/C=C/c1ccccc1
[15]
  EC50: 3.32 µM (active)
[13]
  EC50: 5.31 µM (active)
[17]
  EC50: 4.22 µM (active)
